By IC50 is commonly meant the midpoint of a concentration-inhibition curve.

Experimental findings from patent publication US10414797B2, “Gelatinase inhibitors and use thereof” (Iproteos S.L, priority 2015, dated 2019) are described below.

In one experiment the target is MMP-2 (Homo sapiens (Human), UniProt P08253). The experiment in a line: MMP-2 inhibition assay (fluorimetric, DQ gelatin substrate). The format is biochemical. The following applies: recombinant MMP-2 (CHO cells) 85 ng/mL, DQ gelatin 50 μg/mL, 2 hours at room temperature, pH 7.6. As to the method: (§1) All the experiments were done in 1× reaction buffer, which was obtained from a 10× reaction buffer solution. The content of the 10× reaction buffer was: 50 mL of 0.5 M Tris-HCl, 1.5 M NaCl, 50 mM CaCl2 and 2 mM sodium azide at pH 7.6. To obtain the 1× reaction buffer 4 mL of the 10× reaction buffer were diluted in 36 mL of H2O.
Sequence of MMP-2 (P08253 110-660): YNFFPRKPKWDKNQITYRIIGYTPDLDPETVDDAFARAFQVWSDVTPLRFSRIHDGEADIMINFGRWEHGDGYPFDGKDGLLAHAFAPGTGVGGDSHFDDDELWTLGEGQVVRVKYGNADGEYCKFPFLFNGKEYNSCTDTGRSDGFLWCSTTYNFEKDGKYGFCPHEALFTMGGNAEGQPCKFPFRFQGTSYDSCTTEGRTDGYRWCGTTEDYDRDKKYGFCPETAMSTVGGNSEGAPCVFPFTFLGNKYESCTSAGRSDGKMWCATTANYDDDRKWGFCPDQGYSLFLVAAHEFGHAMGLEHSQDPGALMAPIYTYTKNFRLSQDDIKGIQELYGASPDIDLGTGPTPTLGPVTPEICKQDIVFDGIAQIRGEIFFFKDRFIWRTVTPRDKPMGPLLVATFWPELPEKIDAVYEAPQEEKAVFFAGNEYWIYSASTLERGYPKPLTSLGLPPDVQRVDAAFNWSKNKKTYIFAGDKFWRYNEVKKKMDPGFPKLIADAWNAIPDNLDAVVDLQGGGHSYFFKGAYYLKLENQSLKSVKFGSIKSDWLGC
Recombinant MMP-2 expressed in Chinese hamster ovary (CHO) cells was obtained from Merck-Millipore (catalog number PF023-5UG). DQ gelatin from pig skin fluorescein conjugated (MMP-2 substrate) was obtained from Life Technologies (catalog number E12055).
Preparation of the MMP-2 for the activity assay: MMP-2 was provided as a stock solution (0.1 mg/mL). The enzyme was diluted in 1× reaction buffer to a final concentration of 5 μg/mL.
(§2) Preparation of the DQ gelatin (substrate) solution for the activity assay: the solid form of the substrate was dissolved in water in order to obtain a stock solution of 1 mg/mL.
(§3) Procedure: The enzymatic assays were performed in 96-well microtiter plate, which allowed simultaneous monitoring of multiple reactions. For each reaction, 86.3 μL of 1× reaction buffer (pH 7.6), 1.7 μL of MMP-2 (final concentration 85 ng/mL) and 2 μL of the corresponding new compound were added to each well. A stock solution of new compound was prepared in DMSO (100 mM), and dilutions were prepared from this stock solution with DMSO. Finally, to the mixture contained in each well 10 μL of the substrate were added (final concentration 50 μg/mL). The reaction was incubated for 2 hours at room temperature in an orbital shaker (100 rpm).
(§4) The inhibitory activity of the new compound was measured fluorimetrically. The excitation and emission wavelengths were 483 and 525 nm, respectively.
(§5) Inhibitory activity at several concentration points (ranging from 100 pM to 200 μM MMP) were measured for each compound. The inhibitory activity on MMP-2 and MMP-9 was calculated according to eq 1. For each new compound, the fluorescence in the presence (a) and in the absence (b) of the corresponding MMP was measured. The maximum fluorescence (0% inhibitory activity) was obtained from a sample of the corresponding MMP in the absence of inhibitory compounds. To estimate the inhibitory potency of the novel compounds, activities were plotted against the log concentration of the compound, adjusting to a sigmoid curve using GraphPad Prism software, and the IC50 value, defined as the concentration of compound required to inhibit 50% of the corresponding MMP activity, was determined from resulting curve.
(§6) a corresponds to fluorescence intensity in the presence of substrate+test compound+MMP
(§7) b corresponds to the fluorescence intensity in the presence of substrate+tested compound
(§8) c corresponds to the fluorescence intensity in the presence of substrate+MMP
(§9) d corresponds to the fluorescence intensity of the presence of substrate

A further experiment concerns the target MMP-9. Description: MMP-9 inhibition assay (fluorimetric, DQ gelatin substrate). It is filed as biochemical. The following applies: recombinant MMP-9 (Merck-Millipore for examples 1 to 9 and comparative examples; Enzo for examples 10 to 16), DQ gelatin 50 μg/mL, 4 hours at room temperature, pH 7.6. As to the method: as §1
Recombinant MMP-9 expressed was obtained from Merck-Millipore (catalog number PF140-5UG, used in examples 1 to 9 and comparative examples) and Enzo (catalog number-SE360-0010, used in examples 10 to 16). DQ gelatin from pig skin fluorescein conjugated (MMP-9 substrate) was obtained from Life Technologies (catalog number E12055).
Preparation of the MMP-9 for the activity assay: MMP-9 was provided as a stock solution (0.1 mg/mL). The enzyme was diluted in 1× reaction buffer to a final concentration of 5 μg/mL.
as §2
as §3, with “reaction, 84.6” for “reaction, 86.3”, “7.6), […]” for “7.6), 1.7”, “of MMP-9” for “of MMP-2”, “for 4” for “for 2”
as §4, §5, §6, §7, §8, §9

Where a SMILES comes first, the peptide text is derived from it. [ ]: non-standard residue; d: D form. The star is where a group is joined. ξ: configuration not given here. NMeIle(3ξ) = CCC(C)[C@H](NC)C(=O)O; NMeQ = CN[C@@H](CCC(N)=O)C(=O)O; Ile(3ξ) = CCC(C)[C@H](N)C(=O)O; Hexanoyl = CCCCCC(=O)*; NHOH = ON*

Sequence of MMP-9 (P14780 107-707 limits assumed): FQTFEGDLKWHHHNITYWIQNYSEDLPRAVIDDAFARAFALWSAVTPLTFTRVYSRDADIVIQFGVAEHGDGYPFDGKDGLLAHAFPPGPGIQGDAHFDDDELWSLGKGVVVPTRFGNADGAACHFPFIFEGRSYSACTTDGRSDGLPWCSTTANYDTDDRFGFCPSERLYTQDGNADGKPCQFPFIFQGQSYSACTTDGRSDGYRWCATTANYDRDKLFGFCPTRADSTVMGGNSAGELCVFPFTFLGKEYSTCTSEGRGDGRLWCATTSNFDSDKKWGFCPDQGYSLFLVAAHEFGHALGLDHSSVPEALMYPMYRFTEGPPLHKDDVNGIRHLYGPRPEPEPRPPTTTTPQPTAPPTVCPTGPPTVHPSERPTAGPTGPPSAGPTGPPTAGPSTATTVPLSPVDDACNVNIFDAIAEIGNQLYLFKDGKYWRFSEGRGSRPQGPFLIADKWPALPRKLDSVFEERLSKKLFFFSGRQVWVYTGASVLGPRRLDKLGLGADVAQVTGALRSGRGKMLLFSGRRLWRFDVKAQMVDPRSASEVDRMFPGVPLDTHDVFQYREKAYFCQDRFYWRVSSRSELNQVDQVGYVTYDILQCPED

Take `CCC(C)[C@H](NC(=O)[C@H](Cc1c[nH]c2ccccc12)NC(=O)[C@H](CCC(N)=O)NC(C)=O)C(=O)NO` (stereo partly drawn) [Example C18, (2 S)-2-acetamido-N-[(1S)-2-[[(1S)-1-(hydroxycarbamoyl)-2-methyl-butyl]amino]-1-(1H-indol-3-ylmethyl)-2-oxo-ethyl]pentanediamide, reference compound] (Ac-Gln-Trp-[Ile(3ξ)]-{NHOH}): the results for the half-inhibitory concentration (IC50) on MMP-2 and on MMP-9 were 710 µM and 240 µM, respectively.
In the case of `CCC(C)[C@H](NC(=O)[C@@H]1CCCN1C(=O)[C@H](CCC(N)=O)NC(C)=O)C(=O)NO` (stereo partly drawn) [Example C19, (2S)-1-[(2S)-2-acetamido-5-amino-5-oxo-pentanoyl]-N-[(1S)-1-(hydroxycarbamoyl)-2-methyl-butyl]pyrrolidine-2-carboxamide, reference compound] (Ac-Gln-Pro-[Ile(3ξ)]-{NHOH}), the IC50 at MMP-2 and on MMP-9 was greater than 2000 µM each time.
As for `CCC(C)[C@@H](C(=O)N[C@@H](Cc1c[nH]c2ccccc12)C(=O)NO)N(C)C(=O)[C@@H]1CCCN1C(C)=O` (stereo partly drawn) [Example C21, (2S)-1-acetyl-N-[(1S)-1-[[(1S)-2-(hydroxyamino)-1-(1H-indol-3-ylmethyl)-2-oxo-ethyl]carbamoyl]-2-methyl-butyl]-N-methyl-pyrrolidine-2-carboxamide, reference compound] (Ac-Pro-[NMeIle(3ξ)]-Trp-{NHOH}), the figures for the 50% inhibitory concentration (IC50) at MMP-2 and on MMP-9 were 110 µM and 16 µM, respectively.
On the same counts, the results for `CCCCCC(=O)N1CCC[C@H]1C(=O)N(C)[C@@H](CCC(N)=O)C(=O)N[C@@H](Cc1c[nH]c2ccccc12)C(=O)NO` [Example C23, (2S)-2-[[(SS)-1-hexanoylpyrrolidine-2-carbonyl)-methyl-amino]-N-[(1S)-2-(hydroxyamino)-1-(1H-indol-3-ylmethyl)-2-oxo-ethyl]pentanediamide, reference compound] (Hexanoyl-Pro-[NMeQ]-Trp-{NHOH}) are greater than 2000 µM and greater than 1000 µM.
